For orientation: MIC means the least concentration at which growth counts as inhibited. Low readings indicate a more susceptible organism, high ones a less susceptible organism.

≈ marks a conversion by molar mass, not a printed value.

Consider 25 compounds from ChEMBL document CHEMBL2424561, “Discovery of new antitubercular agents by combining pyrazoline and benzoxazole pharmacophores: design, synthesis and insights into the binding interactions” (2013).

For this assay, the system named is Mycobacterium tuberculosis. Briefly: Antitubercular activity against multidrug-resistant Mycobacterium tuberculosis after 6 weeks. In kind it is functional.
For the compound `COc1cc(C2CC(c3ccccc3Br)=NN2C(C)=O)cc2nc(S)oc12` (stereo not given), the MIC was found to be 25 µg/mL (≈ 56 µM).

`CC(=O)N1N=C(c2ccccc2Br)CC1c1ccc2oc(N)nc2c1` (stereo not given) gave an MIC of 12.5 µg/mL (≈ 31.3 µM). Compared with the last compound, the MIC is about 2-fold lower.

`COc1cc(C2CC(c3ccc(Cl)cc3Cl)=NN2C(C)=O)cc(N)c1O` (stereo not given): the lowest concentration to inhibit growth (MIC) was 12.5 µg/mL (≈ 31.7 µM).

As for `CC(=O)N1N=C(c2ccccc2Br)CC1c1cc(Cl)c2oc(S)nc2c1` (stereo not given), the MIC is 12.5 µg/mL (≈ 27.7 µM).

`NNC(=O)c1ccncc1` [ISONIAZID] had an MIC of 6.25 µg/mL (≈ 45.6 µM).

As for `COc1cc(C2CC(c3ccc(F)cc3)=NN2C(C)=O)cc2nc(S)oc12` (stereo not given), the MIC was found to be 6.25 µg/mL (≈ 16.2 µM).

Compound `COc1cc(C2CC(c3ccccc3)=NN2C(C)=O)cc2nc(N)oc12` (stereo not given) had an MIC of 6.25 µg/mL (≈ 17.8 µM).

`CC(=O)N1N=C(c2ccccc2)CC1c1ccc(O)c(N)c1` (stereo not given) gave an MIC of 25 µg/mL (≈ 84.6 µM). Compared with the last compound, the MIC is about 4-fold higher.

`CC(=O)N1N=C(c2ccccc2)CC1c1cc(Cl)c2oc(S)nc2c1` (stereo not given) registered an MIC of 25 µg/mL (≈ 67.2 µM).

`COc1cc(C2CC(c3ccccc3Br)=NN2C(C)=O)cc2nc(N)oc12` (stereo not given) came in with an MIC of 25 µg/mL (≈ 58.2 µM).

For the compound `CC(=O)N1N=C(c2ccccc2)CC1c1ccc2oc(N)nc2c1` (stereo not given), inhibition of growth (MIC) required 25 µg/mL (≈ 78 µM).

As to `COc1cc(C2CC(c3ccc(Cl)cc3Cl)=NN2C(C)=O)cc2nc(S)oc12` (stereo not given), the MIC turned out to be 12.5 µg/mL (≈ 28.6 µM). Compared with the last compound, the MIC is about 2-fold lower.

`CC(=O)N1N=C(c2ccccc2Br)CC1c1cc(N)c(O)c(Cl)c1` (stereo not given) returned an MIC of 25 µg/mL (≈ 61.2 µM).

In turn, `CC(=O)N1N=C(c2ccccc2)CC1c1cc(Cl)c2oc(N)nc2c1` (stereo not given) yielded an MIC of 25 µg/mL (≈ 70.5 µM).

The compound `COc1cc(C2CC(c3ccccc3)=NN2C(C)=O)cc2nc(S)oc12` (stereo not given) gave a minimal inhibitory concentration (MIC) of 12.5 µg/mL (≈ 34 µM).

As to `CC(=O)N1N=C(c2ccccc2Br)CC1c1ccc2oc(S)nc2c1` (stereo not given), the MIC was found to be 6.25 µg/mL (≈ 15 µM).

The compound `COc1cc(C2CC(c3ccc(F)cc3)=NN2C(C)=O)cc2nc(N)oc12` (stereo not given) registered an MIC of 25 µg/mL (≈ 67.9 µM).

Regarding `CC(=O)N1N=C(c2ccccc2Br)CC1c1cc(Cl)c2oc(N)nc2c1` (stereo not given), the minimum inhibitory concentration (MIC) was 25 µg/mL (≈ 57.6 µM).

With `CC(=O)N1N=C(c2ccccc2Br)CC1c1ccc(O)c(N)c1` (stereo not given), the MIC was 12.5 µg/mL (≈ 33.4 µM). Compared with the last compound, the MIC is about 2-fold lower.

As for `COc1cc(C2CC(c3ccc(Cl)cc3Cl)=NN2C(C)=O)cc2nc(N)oc12` (stereo not given), 12.5 µg/mL (≈ 29.8 µM) was the least that counted as inhibitory (MIC).

In the case of `COc1cc(C2CC(c3ccccc3Br)=NN2C(C)=O)cc(N)c1O` (stereo not given), the minimal inhibitory concentration (MIC) came out at 3.25 µg/mL (≈ 8.04 µM). This MIC is about 3.8-fold lower than that of the compound before.

Compound `COc1cc(C2CC(c3ccc(F)cc3)=NN2C(C)=O)cc(N)c1O` (stereo not given) registered an MIC of 25 µg/mL (≈ 72.8 µM).

Compound `CC(=O)N1N=C(c2ccccc2)CC1c1ccc2oc(S)nc2c1` (stereo not given) returned an MIC of 25 µg/mL (≈ 74.1 µM).

For the compound `COc1cc(C2CC(c3ccccc3)=NN2C(C)=O)cc(N)c1O` (stereo not given), it took 25 µg/mL (≈ 76.8 µM) to inhibit growth (MIC).

As to `CC(=O)N1N=C(c2ccccc2)CC1c1cc(N)c(O)c(Cl)c1` (stereo not given), the MIC turned out to be 25 µg/mL (≈ 75.8 µM).
